As a reminder, the IC50 is the concentration that inhibits the measured activity by half.

Experimental findings from PMC11130653, “Development of a rapid HPLC-fluorescence method for monitoring warfarin metabolites formation: In vitro studies for evaluating the effect of piperine on warfarin metabolism and plasma coagulation” (Heliyon, 2024) are described below.

For this data set, the target named is T1, CYP2C9 (Homo sapiens, UniProt P11712).
T1 construct: human liver microsomes
Kind of data set: inhibition of S-warfarin 7-hydroxylation (CYP2C9 marker) in human liver microsomes, HPLC-FLD. It counts as biochemical.

T1 sequence (P11712 whole entry): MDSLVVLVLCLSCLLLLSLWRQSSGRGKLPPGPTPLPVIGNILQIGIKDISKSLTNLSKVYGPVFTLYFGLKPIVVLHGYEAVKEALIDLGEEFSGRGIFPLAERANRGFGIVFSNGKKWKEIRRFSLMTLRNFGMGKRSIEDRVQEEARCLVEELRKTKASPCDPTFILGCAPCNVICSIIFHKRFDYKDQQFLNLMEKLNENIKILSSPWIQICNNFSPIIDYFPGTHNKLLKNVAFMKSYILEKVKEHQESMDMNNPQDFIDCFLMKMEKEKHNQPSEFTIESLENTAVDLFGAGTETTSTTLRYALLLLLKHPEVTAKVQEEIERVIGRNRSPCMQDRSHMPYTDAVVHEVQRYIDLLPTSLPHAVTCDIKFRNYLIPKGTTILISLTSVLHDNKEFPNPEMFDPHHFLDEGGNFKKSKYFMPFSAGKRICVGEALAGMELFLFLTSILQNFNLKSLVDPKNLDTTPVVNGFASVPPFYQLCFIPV

With `O=C(/C=C/C=C/c1ccc2c(c1)OCO2)N1CCCCC1` [piperine], it took 14.2 ± 1.1 µM to reach half-maximal inhibition (IC50).
